Data reported in patent US20090280160A1, “PHENYLEPHRINE PHARMACEUTICAL FORMULATIONS AND COMPOSITIONS FOR TRANSMUCOSAL ABSORPTION” (Schering-Plough Healthcare Products, Inc., priority 2007, published 2009).
pEC50, pKi: −log10 of the molar value. Entries after “also recorded” stand apart in the source; their conditions may differ.

Experiments:
α1b adrenoreceptor = biological target: T1, α1b adrenoreceptor (Homo sapiens, UniProt P35368); experiment: Competition binding, [3H]-prazosin, α1b CHO cell membranes
T1 construct: expressed in transfected cells
T1 sequence (P35368 1-520): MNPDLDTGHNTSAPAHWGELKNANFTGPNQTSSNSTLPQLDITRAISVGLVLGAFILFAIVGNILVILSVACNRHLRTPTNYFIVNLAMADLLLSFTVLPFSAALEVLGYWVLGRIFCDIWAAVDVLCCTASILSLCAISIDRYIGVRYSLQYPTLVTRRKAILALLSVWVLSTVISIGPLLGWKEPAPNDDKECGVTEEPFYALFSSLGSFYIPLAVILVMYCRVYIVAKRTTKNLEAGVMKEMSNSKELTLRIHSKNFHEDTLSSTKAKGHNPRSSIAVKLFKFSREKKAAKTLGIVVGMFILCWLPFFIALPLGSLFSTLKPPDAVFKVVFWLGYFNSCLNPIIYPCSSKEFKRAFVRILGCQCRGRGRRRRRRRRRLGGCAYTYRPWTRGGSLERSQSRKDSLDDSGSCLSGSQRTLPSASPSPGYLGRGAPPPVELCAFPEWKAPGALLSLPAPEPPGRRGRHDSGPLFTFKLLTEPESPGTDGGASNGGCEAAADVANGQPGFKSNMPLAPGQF
Protocol: (§1) The affinity and activity of phenylephrine metabolites were evaluated in human recombinant α1 and α2 adrenoreceptor binding and activity assays. […] Affinity of the metabolites was determined by receptor binding assays. Functional activity of the metabolites was assessed using an [^35S]-GTPγS binding exchange assay for the α2 receptor subtypes and a cell-based calcium flux response for the α1 receptor subtypes.
Competition Binding Assays
Competition binding assays for the α2 adrenoreceptors were performed using 20 μg membrane protein per well in binding buffer (75 mM Tris-HCl pH 7.4, 12.5 mM MgCl2, […] EDTA, 0.2% bovine serum albumin). […] Binding was terminated by rapid filtration through GF/C unifilter plates, presoaked with 0.3% polyethylenimine, with five washes with 0.5 ml cold 50 mM Tris-HCl ph 7.4, using a Packard Filtermate Harvester. After drying, bound radioactivity was determined by liquid scintillation counting (Packard TopCount) with Microscint 20, 50 μl/well. Binding data were analyzed using GraphPad Prism.
(§2) Each metabolite was evaluated in each assay in at least 2 independent experiments and a representative assay of each metabolite/assay combination is shown.

α2a adrenoreceptor = biological target: T2, α2a adrenoreceptor (Homo sapiens, UniProt P08913); experiment: [35S]-GTPγS binding exchange, α2a CHO cell membranes; type: biochemical; conditions: for stimulation of [35S]-GTPγS binding, α2a (in words): CHO cell membranes
T2 construct: expressed in transfected cells; host or cells: CHO (Chinese hamster ovary) cells, membranes
T2 sequence (P08913 1-465): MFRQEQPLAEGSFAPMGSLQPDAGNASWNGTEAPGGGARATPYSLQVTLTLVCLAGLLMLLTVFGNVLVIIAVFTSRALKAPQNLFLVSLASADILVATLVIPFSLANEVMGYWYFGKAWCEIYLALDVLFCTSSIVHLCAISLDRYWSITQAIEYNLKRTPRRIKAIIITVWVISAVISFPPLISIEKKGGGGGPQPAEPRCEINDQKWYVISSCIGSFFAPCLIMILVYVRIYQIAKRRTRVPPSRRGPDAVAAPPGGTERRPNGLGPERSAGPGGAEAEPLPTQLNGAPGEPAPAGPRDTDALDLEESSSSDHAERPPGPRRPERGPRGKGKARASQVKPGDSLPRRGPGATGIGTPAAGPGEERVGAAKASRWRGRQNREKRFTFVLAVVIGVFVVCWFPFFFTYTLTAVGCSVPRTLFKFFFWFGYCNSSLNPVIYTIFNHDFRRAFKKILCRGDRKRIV
Protocol: as §1
Plates were counted on a Packard TopCount. The percent increase over basal binding of [^35S]-GTPγS, a measure of efficacy, was calculated as follows: 100×[[mean total sample cpm−basal cpm]÷by basal cpm]. Basal cpm was defined as the mean cpm in the absence of agonist compound minus the mean non-specific binding cpm.
as §2

α1a adrenoreceptor = biological target: T3, α1a adrenoreceptor (Homo sapiens, UniProt P35348); experiment: Cellular calcium flux (FLIPR), α1a expressing CHO cells; type: cell-based; conditions: for increase in intracellular calcium, α1a calcium assay (in words): α1a expressing CHO cells
T3 construct: expressed in transfected cells
T3 sequence (P35348 1-466): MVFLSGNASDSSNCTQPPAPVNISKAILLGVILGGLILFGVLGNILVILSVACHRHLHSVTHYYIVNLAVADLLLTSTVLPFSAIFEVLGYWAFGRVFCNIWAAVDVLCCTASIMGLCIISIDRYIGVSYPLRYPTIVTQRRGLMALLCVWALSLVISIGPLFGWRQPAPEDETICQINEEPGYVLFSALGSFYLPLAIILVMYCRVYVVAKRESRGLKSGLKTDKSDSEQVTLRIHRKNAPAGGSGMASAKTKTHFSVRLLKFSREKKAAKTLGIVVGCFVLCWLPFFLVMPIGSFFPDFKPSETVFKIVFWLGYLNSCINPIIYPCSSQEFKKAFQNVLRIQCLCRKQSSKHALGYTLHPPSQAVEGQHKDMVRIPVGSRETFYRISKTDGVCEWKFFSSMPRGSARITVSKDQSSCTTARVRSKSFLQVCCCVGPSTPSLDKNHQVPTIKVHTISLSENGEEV
Protocol: as §1
Intracellular calcium levels were measured using a fluorometric imaging plate reader (FLIPR). Cells expressing α1 adrenoreceptors were cultured overnight at 15,000 cells/well in 96 well black-wall clear bottom plates (Packard). Adherent cells were loaded for 1 hour at 37° C. using the FLIPR Calcium Plus Assay Kit (Molecular Probes, Eugene, Oreg.), which included 2.5 mM probenecid (Sigma). Compounds (at 10 mM in 100% DMSO) were diluted in diluting buffer (HBSS, 20 mM HEPES, 2.5 mM probenecid, 0.5% BSA, pH 7.4). A titration of norepinephrine was included in every experiment and norepinephrine (at 1 μM) was also used as a plate standard on each assay plate. Cells were maintained at 37° C. throughout all calcium measurements. Fluorescence data was collected at 1 second interval for 60 seconds, followed by collection at 2 second intervals for 30 seconds. Background fluorescence was quantitated in wells containing cells with no additions and was subtracted from all experimental samples. All conditions were done in quadruplicate. Non-linear regression analysis using GraphPad Prism was used to calculate EC50 values.
as §2

[1] = highest concentration evaluated (10 μM)

SMILES | pKi (α1b adrenoreceptor; [3H]-prazosin, read-out: Ki, a1b Binding (class symbol)) | binding / affinity, α1b receptor (in words) (α1b adrenoreceptor; concentrations up to 100 μM) | stimulation of [35S]-GTPγS binding, α2a (in words) (α2a adrenoreceptor) | agonist activity, α2a [35S]-GTPγS assay (in words) (α2a adrenoreceptor; [1]) | pEC50 (α2a adrenoreceptor; read-out: EC50, a2a GTPγS (class symbol)) | agonist activity, α1a calcium assay (in words) (α1a adrenoreceptor; [1]) | increase in intracellular calcium, α1a calcium assay (in words) (α1a adrenoreceptor) | pEC50 (α1a adrenoreceptor; α1a-expressing CHO cells, read-out: EC50, a1a Calcium (class symbol)) | inhibition of 3H-prazosin binding, α1b (in words) (α1b adrenoreceptor; CHO cell membranes) | activity in α2a [35S]-GTPγS assay (in words) (α2a adrenoreceptor; highest concentration, 100 μM) | fold less potent than PE in inducing a calcium increase, α1a cells (α1a adrenoreceptor; batch b4, approximately 0.28% PE) | increase in intracellular calcium, α1a calcium assay (in words) (α1a adrenoreceptor; listed as PE glucuronide batch 4)
O=C(O)C(O)c1cccc(O)c1 (centres unmarked) [3-hydroxymandelic acid] | < 4.00 | No appreciable binding; also recorded: no affinity | no activity | no activity | < 5.00 | no activity | not active | < 5.00 | – | – | – | –
CNC[C@H](O)c1cccc(O[C@@H]2O[C@H](C(=O)O)[C@@H](O)[C@H](O)[C@H]2O)c1 [PE glucuronide, (R)-PE glucuronide] | – | – | nor did it activate binding; also recorded: pharmacologically inactive | – | – | – | consistent with level of contaminating phenylephrine; also recorded: pharmacologically inactive | – | No appreciable binding; also recorded: no binding affinity; also recorded: pharmacologically inactive | very weak binding | 300-450 fold | minimal activity
